Laboratory results: patent publication US10130693B2, “Peptides, combination of peptides and scaffolds for use in immunotherapeutic treatment of various cancers” (Immatics Biotechnologies GmbH, priority 2015, dated 2018)

Test system: HLA-A*24
Test: MHC binding assay, UV-ligand exchange with beta2m ELISA (exchange yield), HLA-A*24
Design: species or system human
Settings: binding to HLA-A*24, UV-ligand exchange
Text: Candidate peptides for T cell based therapies according to the present invention were further tested for their MHC binding capacity (affinity). The individual peptide-MHC complexes were produced by UV-ligand exchange, where a UV-sensitive peptide is cleaved upon UV-irradiation, and exchanged with the peptide of interest as analyzed. Only peptide candidates that can effectively bind and stabilize the peptide-receptive MHC molecules prevent dissociation of the MHC complexes. To determine the yield of the exchange reaction, an ELISA was performed based on the detection of the light chain (β2m) of stabilized MHC complexes. The assay was performed as generally described in Rodenko et al. (Rodenko et al., 2006).
96 well MAXISorp plates (NUNC) were coated over night with 2 ug/ml streptavidin in PBS at room temperature, washed 4× and blocked for 1 h at 37° C. in 2% BSA containing blocking buffer. […] Peptide-MHC monomers of the UV-exchange reaction were diluted 100 fold in blocking buffer. Samples were incubated for 1 h at 37° C., washed four times, incubated with 2 ug/ml HRP conjugated anti-β2m for 1h at 37° C., washed again and detected with TMB solution that is stopped with […]. Absorption was measured at 450 nm. Candidate peptides that show a high exchange yield (preferably higher than 50%, most preferred higher than 75%) are generally preferred for a generation and production of antibodies or fragments thereof, and/or T cell receptors or fragments thereof, as they show sufficient avidity to the MHC molecules and prevent dissociation of the MHC complexes.

## 97 (TYTFLKETF; listed as Homo sapiens) [compound 97]
  Peptide exchange (MHC class I binding score, peptide exchange yield): ++++ (>=75% = ++++)

## 100 (VYIESRIGTSTSF; listed as Homo sapiens) [compound 100]
  Peptide exchange (MHC class I binding score, peptide exchange yield): +++ (50%-75% = +++)

## 108 (PYLVVIHTL; listed as Homo sapiens) [compound 108]
  Peptide exchange (MHC class I binding score, peptide exchange yield): +++ (50%-75% = +++)

## 113 (IYSFHTLSF; listed as Homo sapiens) [compound 113]
  Peptide exchange (MHC class I binding score, peptide exchange yield): +++ (50%-75% = +++)

## 116 (AYVIAVHLF; listed as Homo sapiens) [compound 116]
  Peptide exchange (MHC class I binding score, peptide exchange yield): ++++ (>=75% = ++++)

## 117 (IYLSDLTYI; listed as Homo sapiens) [compound 117]
  Peptide exchange (MHC class I binding score, peptide exchange yield): +++ (50%-75% = +++)

## 118 (KYLNSVQYI; listed as Homo sapiens) [compound 118]
  Peptide exchange (MHC class I binding score, peptide exchange yield): +++ (50%-75% = +++)

## 121 (RYGLPAAWSTF; listed as Homo sapiens) [compound 121]
  Peptide exchange (MHC class I binding score, peptide exchange yield): +++ (50%-75% = +++)

## 123 (VYTPVLEHL; listed as Homo sapiens) [compound 123]
  Peptide exchange (MHC class I binding score, peptide exchange yield): ++ (20%-49% = ++)

## 124 (TYKDYVDLF; listed as Homo sapiens) [compound 124]
  Peptide exchange (MHC class I binding score, peptide exchange yield): + (<20% = +)

## 125 (VFSRDFGLLVF; listed as Homo sapiens) [compound 125]
  Peptide exchange (MHC class I binding score, peptide exchange yield): +++ (50%-75% = +++)

## 127 (QYFTGNPLF; listed as Homo sapiens) [compound 127]
  Peptide exchange (MHC class I binding score, peptide exchange yield): +++ (50%-75% = +++)

## 128 (VYPFDWQYI; listed as Homo sapiens) [compound 128]
  Peptide exchange (MHC class I binding score, peptide exchange yield): ++++ (>=75% = ++++)

## 129 (KYIDYLMTW; listed as Homo sapiens) [compound 129]
  Peptide exchange (MHC class I binding score, peptide exchange yield): ++++ (>=75% = ++++)

## 131 (EYLDRIGQLFF; listed as Homo sapiens) [compound 131]
  Peptide exchange (MHC class I binding score, peptide exchange yield): +++ (50%-75% = +++)

## 133 (KYLEDMKTYF; listed as Homo sapiens) [compound 133]
  Peptide exchange (MHC class I binding score, peptide exchange yield): +++ (50%-75% = +++)

## 134 (AYIPTPIYF; listed as Homo sapiens) [compound 134]
  Peptide exchange (MHC class I binding score, peptide exchange yield): +++ (50%-75% = +++)

## 135 (VYEAMVPLF; listed as Homo sapiens) [compound 135]
  Peptide exchange (MHC class I binding score, peptide exchange yield): ++++ (>=75% = ++++)

## 136 (IYPEWPVVFF; listed as Homo sapiens) [compound 136]
  Peptide exchange (MHC class I binding score, peptide exchange yield): +++ (50%-75% = +++)

## 138 (VYNAVSTSF; listed as Homo sapiens) [compound 138]
  Peptide exchange (MHC class I binding score, peptide exchange yield): ++ (20%-49% = ++)

## 141 (SYNGHLTIWF; listed as Homo sapiens) [compound 141]
  Peptide exchange (MHC class I binding score, peptide exchange yield): +++ (50%-75% = +++)

## 143 (KYIFQLNEI; listed as Homo sapiens) [compound 143]
  Peptide exchange (MHC class I binding score, peptide exchange yield): +++ (50%-75% = +++)

## 145 (VYALKVRTI; listed as Homo sapiens) [compound 145]
  Peptide exchange (MHC class I binding score, peptide exchange yield): +++ (50%-75% = +++)

## 146 (NYYERIHAL; listed as Homo sapiens) [compound 146]
  Peptide exchange (MHC class I binding score, peptide exchange yield): +++ (50%-75% = +++)

## 147 (LYLAFPLAF; listed as Homo sapiens) [compound 147]
  Peptide exchange (MHC class I binding score, peptide exchange yield): +++ (50%-75% = +++)

## 148 (SYGTVSQIF; listed as Homo sapiens) [compound 148]
  Peptide exchange (MHC class I binding score, peptide exchange yield): ++++ (>=75% = ++++)

## 149 (SYGTVSQI; listed as Homo sapiens) [compound 149]
  Peptide exchange (MHC class I binding score, peptide exchange yield): ++++ (>=75% = ++++)

## 152 (KFFDDLGDELLF; listed as Homo sapiens) [compound 152]
  Peptide exchange (MHC class I binding score, peptide exchange yield): ++ (20%-49% = ++)

## 153 (VYVPFGGKSMITF; listed as Homo sapiens) [compound 153]
  Peptide exchange (MHC class I binding score, peptide exchange yield): ++++ (>=75% = ++++)

## 154 (VYGVPTPHF; listed as Homo sapiens) [compound 154]
  Peptide exchange (MHC class I binding score, peptide exchange yield): ++++ (>=75% = ++++)

## 159 (IYEETRGVL; listed as Homo sapiens) [compound 159]
  Peptide exchange (MHC class I binding score, peptide exchange yield): +++ (50%-75% = +++)

## 165 (EYFTPLLSGQF; listed as Homo sapiens) [compound 165]
  Peptide exchange (MHC class I binding score, peptide exchange yield): +++ (50%-75% = +++)

## 169 (NYITGKGDVF; listed as Homo sapiens) [compound 169]
  Peptide exchange (MHC class I binding score, peptide exchange yield): +++ (50%-75% = +++)

## 173 (QYLEKYYNL; listed as Homo sapiens) [compound 173]
  Peptide exchange (MHC class I binding score, peptide exchange yield): ++++ (>=75% = ++++)

## 176 (FYINGQYQF; listed as Homo sapiens) [compound 176]
  Peptide exchange (MHC class I binding score, peptide exchange yield): +++ (50%-75% = +++)

## 178 (NYSSAVQKF; listed as Homo sapiens) [compound 178]
  Peptide exchange (MHC class I binding score, peptide exchange yield): +++ (50%-75% = +++)

## 183 (PYLQDVPRI; listed as Homo sapiens) [compound 183]
  Peptide exchange (MHC class I binding score, peptide exchange yield): +++ (50%-75% = +++)

## 184 (IYSVGAFENF; listed as Homo sapiens) [compound 184]
  Peptide exchange (MHC class I binding score, peptide exchange yield): ++++ (>=75% = ++++)

## 185 (QYLVHVNDL; listed as Homo sapiens) [compound 185]
  Peptide exchange (MHC class I binding score, peptide exchange yield): ++++ (>=75% = ++++)

## 187 (AYAANVHYL; listed as Homo sapiens) [compound 187]
  Peptide exchange (MHC class I binding score, peptide exchange yield): ++++ (>=75% = ++++)

## 188 (GYKTFFNEF; listed as Homo sapiens) [compound 188]
  Peptide exchange (MHC class I binding score, peptide exchange yield): +++ (50%-75% = +++)

## 191 (TYPDGTYTGRIF; listed as Homo sapiens) [compound 191]
  Peptide exchange (MHC class I binding score, peptide exchange yield): +++ (50%-75% = +++)

## 192 (RYSTFSEIF; listed as Homo sapiens) [compound 192]
  Peptide exchange (MHC class I binding score, peptide exchange yield): +++ (50%-75% = +++)

## 193 (LYLENNAQTQF; listed as Homo sapiens) [compound 193]
  Peptide exchange (MHC class I binding score, peptide exchange yield): +++ (50%-75% = +++)

## 194 (VYQSLSNSL; listed as Homo sapiens) [compound 194]
  Peptide exchange (MHC class I binding score, peptide exchange yield): +++ (50%-75% = +++)
